The source of these data is US20050175535A1 (CV Therapeutics, Inc., priority 2000, published 2005).

SMILES strings stand for the structures. Read-outs that look alike come from different tables or passages of the source.

Assay [1] has as its target T1, human A1 adenosine receptors (Homo sapiens, UniProt P30542).
T1 construct: expressed in transfected cells
T1 sequence (P30542 1-326): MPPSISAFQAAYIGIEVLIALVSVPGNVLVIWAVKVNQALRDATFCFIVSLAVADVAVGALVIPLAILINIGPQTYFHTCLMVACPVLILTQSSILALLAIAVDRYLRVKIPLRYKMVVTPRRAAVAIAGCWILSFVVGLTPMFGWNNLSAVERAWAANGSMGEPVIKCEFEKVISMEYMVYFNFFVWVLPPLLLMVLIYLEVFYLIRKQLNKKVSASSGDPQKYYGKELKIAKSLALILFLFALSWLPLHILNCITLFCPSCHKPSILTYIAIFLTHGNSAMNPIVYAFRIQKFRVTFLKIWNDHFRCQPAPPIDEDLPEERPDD
The assay can be described thus: Competitive radioligand binding, [3H]CPX, CHO-hA1AdoR membranes. To be noted: [3H]CPX. On the procedure:
The cell suspensions were homogenized and centrifuged at 48,000g for 15 minutes. The pellets were washed three times by re-suspension in ice-cold Tris-HCl buffer and centrifugation. The final pellet was re-suspended in Tris-HCl, aliquoted and frozen at −80° C. until used for receptor binding assays.

Assay [2] has as its target A2A adenosine receptors (Sus scrofa, UniProt K9IW67). The assay is described as follows: Competitive radioligand binding, [3H]ZM241385, pig striatum membranes. The procedure:
Membranes were also obtained from porcine striatial cells as follows. […] The homogenate was filtered through cotton gauze and centrifuged at 48,000g for 15 minutes at 4° C. […] The final pellet was frozen at −80° C. until used for receptor binding assays.

In assay [3] the test system is rat isolated perfused heart. The assay is described as follows: Coronary conductance / coronary perfusion pressure in isolated perfused rat hearts. To be noted: Rattus norvegicus. The procedure: Briefly, rats of either sex weighing 230-260 grams were anesthetized by intraperitoneal injection of a mixture of ketamine (100 mg/ml) and xylazine (20 mg/ml). The chest of each rat was opened and the heart removed, and rinsed in ice-cold modified Krebs-Henseleit (K-H) solution containing NaCl 117.9, KCl 4.5, CaCl2 2.5, MgSO4 1.18, KH2PO4 1.18, pyruvate 2.0 mmo/L. The aorta was cannulated and the heart was perfused at a flow rate of 10 ml/min with modified K-H solution. The K-H solution (pH 7.4) was gassed continuously with 95% O2 and 5% CO2 and warmed to 35±0.5° C. The heart was electrically paced at a fixed cycle length of 240 ms (250 beats/min) using a bipolar electrode placed in the left atrium. The electrical stimuli were generated by a Grass stimulator (Model S48, W. Warwick, R.I.) and delivered through a Stimuli Isolation Unit (Model SIU5, Astro-Med, Inc., NY) as square-wave pulses of 3-msec in duration and with an amplitude of at least twice the threshold intensity.
The identity of the adenosine receptor subtype (A1 or A2A) mediating the coronary vasodilation was determined.
Coronary perfusion pressure (CPP) was measured using a pressure transducer that was connected to the aortic cannula via a T-connector positioned approximately 3 cm above the heart. CPP was monitored throughout an experiment and recorded either on a chart recorder (Gould Recorder 2200S, Valley View, Ohio) or a computerized recording system (PowerLab/4S, ADInstruments Pty Ltd, Australia). Only hearts with CPP ranging from 60 to 85 mmHg (in the absence of drugs) were used in the study. CC conductance (in ml/min/mmHg) was calculated as the ratio between coronary perfusion rate (10 ml/min) and CPP.

Assay [4] deals with A2A adenosine receptors (Rattus norvegicus, UniProt P30543). The assay is described as follows: Competitive radioligand binding, [3H]ZM241385, PC12 cell membranes. To be noted: PC12 cells (A2A).
Chain of A2A adenosine receptors (Rattus norvegicus, UniProt P30543) (P30543 whole entry, the tested form may be a part): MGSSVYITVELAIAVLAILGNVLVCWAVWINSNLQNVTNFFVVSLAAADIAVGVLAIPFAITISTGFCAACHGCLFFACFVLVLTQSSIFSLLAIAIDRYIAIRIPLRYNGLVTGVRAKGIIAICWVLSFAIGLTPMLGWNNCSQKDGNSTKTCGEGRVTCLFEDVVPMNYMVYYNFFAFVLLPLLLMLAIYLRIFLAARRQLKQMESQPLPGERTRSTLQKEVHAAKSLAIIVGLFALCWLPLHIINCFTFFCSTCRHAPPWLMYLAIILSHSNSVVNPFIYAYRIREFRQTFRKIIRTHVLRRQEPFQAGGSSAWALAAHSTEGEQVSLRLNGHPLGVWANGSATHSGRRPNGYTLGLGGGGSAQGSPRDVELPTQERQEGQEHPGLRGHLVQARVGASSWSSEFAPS
Experimental: Rat pheochromocytoma PC12 cells were obtained from the American Type Culture Collection and grown in DMEM with 5% fetal bovine serum, 10% horse serum, 0.5 mmol/L L-glutamine, 100 U/mL penicillin, 0.1 mg/l mL streptomycin, and 2.5 μg/mL amphotericin.
Cell membranes were harvested from the cell lines by detaching cells from the culture plates into ice-cold 50 mmol/L Tris-HCl buffer (pH 7.4). The cell suspensions were homogenized and centrifuged at 48,000g for 15 minutes. The pellets were washed three times by re-suspension in ice-cold Tris-HCl buffer and centrifugation. The final pellet was re-suspended in Tris-HCl, aliquoted and frozen at −80° C. until used for receptor binding assays.
Briefly, membrane suspensions, obtained from cells expressing either adenosine receptor subtypes A1, A2A, A2B or A3were incubated for 2 hours at room temperature in 50 mmol/L Tris-HCl buffer (pH 7.4) containing ADA (1U/mL). […] At the end of the incubation, free radioligand was separated from membrane-bound radioligand by filtration through Whatman GF/C glass fiber filters using a Brandel tissue harvester (Gaithersburg, Md.). Triplicate determinations were performed for each concentration of unlabelled compound.
Assay [5] in a line: Coronary blood flow and reversal time, intracoronary infusion in open-chest anesthetized pigs. It is filed as in vivo. On the procedure:
The magnitude of the effect of A2A adenosine receptor agonists on coronary dilation and the duration of the effect was determined in pigs weighing 22-27 kg. […] In addition, animals were used in accordance with the guidelines of the University of Kentucky Institutional Animal Care and Use Protocol.
Anesthesia was maintained with additional sodium pentobarbital (1.5-2 mg/kg, i.v.) every 15-20 minutes. Animals were ventilated via a tracheotomy tube using a mixture of room air and 100% O2. Tidal volume, respiratory rate and fraction of O2 in inspired air were adjusted to maintain arterial blood gas (ABG) and pH values. […] Lactate Ringers solution was administered via an ear or femoral vein as an initial bolus of 300-400 ml followed by a continuous infusion at a rate of 5-7 ml/kg/hr. A catheter was inserted into the femoral artery to monitor arterial blood pressure.
The heart was exposed through a median sternotomy and suspended in a pericardial cradle. Left ventricular pressure (LVP) was measured with a 5F high fidelity pressure sensitive tip transducer (Millar Instruments, Houston, Tex.) placed in the left ventricular cavity via an apical incision and secured with a purse string suture. A segment of the left anterior descending coronary artery (LAD), proximal to the origin of the first diagonal branch, was dissected free of surrounding tissue. A transit time perivascular flow probe (Transonic Systems Inc., Ithaca, N.Y.) was placed around this segment to measure CBF. Proximal to the flow probe, a 24-gauge modified angiocatheter was inserted for intracoronary infusions. […] The A2A adenosine receptors agonists were administered intracoronary.
Relationship between affinity of various agonists for A2A adenosine receptor and the reversal time of their effect to increase coronary conductance was determined in pigs. Each experiment was preceded by a 30-minute stabilization period following the completion of all instrumentation of the animal. Baseline hemodynamic data were then recorded and an intracoronary infusion of an A2A Adenosine receptors agonist was initiated. Each infusion was maintained for 4-5 minutes to allow LAD CBF to reach a steady-state, after which the infusion was terminated. The times to recovery of CBF by 50% (t0.5) and 90% (t0.9) of the difference from peak effect to baseline CBF were recorded. Ten to 15 minutes after CBF returned to pre-drug values a second infusion with a different agonist was started. […] Hemodynamic measurements were made prior to and following the initiation of the phenylephrine infusion. The phenylephrine infusion rate was adjusted during and following the infusions of the adenosine receptor agonists to maintain arterial blood pressure within 5 mmHg of pre-infusion values. The effect of a maximum of three different agonists was determined in each experiment.

Assay [6] deals with rat isolated perfused heart. The assay can be described thus: Reversal time of coronary vasodilation in rat isolated perfused hearts.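 Further: each agonist bolused at its minimal concentration giving equal maximal coronary conductance rise.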 The note with it: bolus, rat isolated perfused heart. On the procedure:
FIG. 10. Reversal of effect of agonist stimulation on CC. […] CC was measured at 8, 16 and 24 minutes after administration (FIG. 10A). […] R and N are the correlation coefficient and number of agonists, respectively.
The relationship between the affinity of agonists for the A2A receptor and the rate of reversal of agonist-mediated responses (coronary vasodilation in heart and cAMP accumulation in PC12 cells) upon termination of drug administration were determined. […] The duration of the coronary vasodilation in isolated rat hearts caused by adenosine, the CVT compounds, and other agonists measured as the time to 50% and 90% (t0.5 and t0.9, respectively) reversal of the increases in coronary conductance after termination of drug administration are summarized in Table 4.

Assay [7] deals with T2, A2A adenosine receptors (PC12 cells) (Rattus norvegicus, UniProt P30543). The assay is described as follows: cAMP accumulation in PC12 cells. For orientation: Cyclic AMP is a second messenger, typically raised through Gs and lowered through Gi signalling.
T2 sequence (P30543 whole entry): as the sequence (P30543 whole entry, the tested form may be a part) above
Experimental: Effects of adenosine receptor agonists on cAMP content in intact PC12 cells. […] Cyclic AMP levels were determined as described under “Methods”. Values represent mean±SEM of results of triplicate samples from three experiments. […] Values represent mean±SEM of triplicate determinants from one representative experiment.
Briefly, PC12 cells were rinsed three times with Hanks' balanced saline solution (HBSS), detached using a cell lifter, and pelleted by centrifugation at 500 g for 5 minutes. Aliquots of the cell suspension (0.1 to 0.2 mg protein) were placed in microfuge tubes with 250 μL of HBSS containing rolipram (50 μmol/L) to inhibit phosphodiesterases that degrade cAMP_and warmed to 37° C. Appropriate drugs were added to the cell suspensions, and incubations were allowed to continue for 10 minutes. Tubes were placed in a boiling water bath for 5 minutes to terminate the incubation. The samples were then cooled to room temperature, diluted by the addition of 1 mL of 10 mmol/L Tris-HCl buffer at pH 7.4, and then centrifuged for 2 minutes at 13000 g.
The samples were then incubated at 4° C. for 16 hours. At the end of the incubation, 70 μL of a 50% (wt/vol) hydroxyapatite suspension was added to each tube. The suspensions were gently agitated and then incubated for 10 minutes at 4° C. Antibody-bound radioactivity adsorbed to hydroxyapatite was collected onto glass fiber filters by vacuum filtration using a Brandel cell harvester. Radioactivity retained by the filter was counted in a gamma counter. […] The amount of cAMP present in samples was calculated based on a standard curve using known amounts of cAMP.
Assay [8] concerns the target human A2A adenosine receptors (Homo sapiens, UniProt P29274). The assay is described as follows: Competitive radioligand binding, [3H]ZM241385, HEK-hA2AAdoR membranes. The note with it: HEK-hA2AAdoR.
Experimental: Each point represents the mean±SEM of triplicates pooled from at least three experiments.
ZM241385 was purchased from Tocris Cookson Ltd (Langford, Bristol, UK).
Competitive radiolabeling binding assays were performed to determine the binding affinities of the compounds of the invention for the adenosine receptor subtypes, A1, A2A, A2B and A3. Briefly, membrane suspensions, obtained from cells expressing either adenosine receptor subtypes A1, A2A, A2B or A3were incubated for 2 hours at room temperature in 50 mmol/L Tris-HCl buffer (pH 7.4) containing ADA (1U/mL). […] At the end of the incubation, free radioligand was separated from membrane-bound radioligand by filtration through Whatman GF/C glass fiber filters using a Brandel tissue harvester (Gaithersburg, Md.). Triplicate determinations were performed for each concentration of unlabelled compound.
For assay [9], the target named is T2, A2A adenosine receptors (PC12 cells). The assay is described as follows: Rate of decline of agonist-stimulated cAMP in PC12 cells after A2A antagonist SCH58261. To be noted: agonist 1 μM, after addition of SCH58261 (20 μM).
The mark [10] stands for this setting: read-out: pKi ± SEM, CHO-hA1AdoR (converted).
The mark [11] stands for this setting: read-out: EC50, Coronary Conductance (Rat Isolated Heart).
The mark [12] stands for this setting: read-out: pEC50 ± SEM, Coronary Conductance (Rat Isolated Heart) (converted).
The mark [13] stands for this setting: [3H]ZM241385, Gpp(NH)p present, read-out: Ki, Pig Strialum (A2A).

Chain of A2A adenosine receptors (Sus scrofa, UniProt K9IW67) (K9IW67 1-409): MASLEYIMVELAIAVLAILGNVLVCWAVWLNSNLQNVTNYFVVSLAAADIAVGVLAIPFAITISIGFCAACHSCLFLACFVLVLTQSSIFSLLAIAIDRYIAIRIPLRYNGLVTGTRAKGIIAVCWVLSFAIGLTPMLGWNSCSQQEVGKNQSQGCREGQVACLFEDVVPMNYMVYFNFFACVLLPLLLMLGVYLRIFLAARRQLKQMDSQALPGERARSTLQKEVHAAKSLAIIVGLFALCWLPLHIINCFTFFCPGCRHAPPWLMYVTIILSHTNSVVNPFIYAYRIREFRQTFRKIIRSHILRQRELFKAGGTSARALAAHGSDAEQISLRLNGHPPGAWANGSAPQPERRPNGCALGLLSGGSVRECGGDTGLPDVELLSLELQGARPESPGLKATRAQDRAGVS
Chain of human A2A adenosine receptors (P29274 whole entry): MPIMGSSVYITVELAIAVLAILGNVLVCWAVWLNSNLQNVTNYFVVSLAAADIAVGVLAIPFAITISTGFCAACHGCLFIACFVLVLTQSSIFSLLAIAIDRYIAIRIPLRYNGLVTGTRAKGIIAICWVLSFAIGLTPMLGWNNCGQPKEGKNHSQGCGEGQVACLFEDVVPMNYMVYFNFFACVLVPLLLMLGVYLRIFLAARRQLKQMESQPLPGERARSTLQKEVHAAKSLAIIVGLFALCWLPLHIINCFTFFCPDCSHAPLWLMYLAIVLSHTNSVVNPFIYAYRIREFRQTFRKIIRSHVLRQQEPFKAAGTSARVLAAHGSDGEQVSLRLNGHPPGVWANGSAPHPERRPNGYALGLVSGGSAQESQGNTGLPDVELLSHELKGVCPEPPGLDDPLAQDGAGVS

As to `Nc1nc(N/N=C/C2CCCCC2)nc2c1ncn2[C@@H]1O[C@H](CO)[C@@H](O)[C@H]1O` [WRC0470, 2-cyclohexylmethylidenehydrazinoadenosine, reference compound], the Ki in assay [1] (read-out: Ki, CHO-hA1AdoR) was 7280 nM; in [1] (setting [10]) it was 6920 nM; on A2A adenosine receptors [2] it was 20.7 nM; on A2A adenosine receptors [4] (Ki), 18 nM; at A2A adenosine receptors [4] (pKi ± SEM) it was 17 nM. Further, the EC50 was 0.62 nM in assay [3] (setting [11]) and 0.646 nM in assay [3] (setting [12]). In addition, the “t0.5 reversal of increase in coronary blood flow” value in [5] (1 ug/kg/min intracoronary) stood at 9.5 ± 0.8 min. In addition, the “t0.9 reversal of increase in coronary blood flow” value in assay [5] (1 ug/kg/min intracoronary) was determined as 22.5 ± 1.6 min.

For the compound `Nc1nc(-c2cnn(Cc3ccccc3)c2)nc2c1ncn2C1O[C@@H](CO)[C@H](O)[C@@H]1O` (stereo partly drawn) [CVT-3032], the Ki in assay [1] (read-out: Ki, CHO-hA1AdoR) is 6350 nM; in assay [1] (setting [10]), 6030 nM; on A2A adenosine receptors [2] (setting [13]) it was 1590 nM; in assay [8] (Ki), 13700 nM; in assay [8] (pKi ± SEM), 13500 nM; on A2A adenosine receptors [4] (Ki), 5520 nM. In addition, the EC50 is 66.5 nM in assay [3] (setting [11]), 66.1 nM in assay [3] (setting [12]) and 613 nM in [7]. The “t0.5, time to 50% reversal of the increase in coronary conductance” value in assay [6] amounted to 4.1 ± 0.3 min. For the same compound, the “t0.9, time to 90% reversal of the increase in coronary conductance” value in assay [6] came to 9.8 ± 1.4 min. Also, the “agonist behaviour in PC12 cells” value in assay [7] is reported as “partial A2A agonists”. Besides, the Emax in assay [7] (PC-12, read-out: maximal response of cAMP accumulation, % of that induced by CGS21680) came to 65%. In addition, in [5] (30 ug/kg/min intracoronary), the “CBF (fold-increase)” value stood at 3.78 ± 0.70 fold. In [5] (30 ug/kg/min intracoronary), the “t0.5 reversal of increase in coronary blood flow” value worked out at 2.3 ± 0.6 min. In [5] (30 ug/kg/min intracoronary), the “t0.9 reversal of increase in coronary blood flow” value is reported as 9.6 ± 1.0 min.

Take `Nc1nc(C#CCOc2ccccc2)nc2c1ncn2C1O[C@@H](CO)[C@H](O)[C@@H]1O` (stereo partly drawn) [CVT-2995]: the Ki in assay [1] (read-out: Ki, CHO-hA1AdoR) was 866 nM; in assay [1] (setting [10]), 851 nM; at A2A adenosine receptors [2] (setting [13]), 14.4 nM; on A2A adenosine receptors [2] ([3H]ZM241385, Gpp(NH)p present, read-out: pKi ± SEM, Pig Strialum (A2A) (converted)) it was 13.8 nM; in assay [8] (Ki, [3H]ZM241385), 305 nM; in [8] (pKi ± SEM, [3H]ZM241385), 302 nM. Also, the Ki on A2A adenosine receptors [4] (Ki, [3H]ZM241385) came out at 53 nM. Moreover, the EC50 is 0.68 nM in assay [3] (setting [11]); 0.676 nM in [3] (setting [12]); 6.6 nM in [7] (EC50, cAMP Accumulation (PC12 cells)); 1.51 nM in assay [7] (pEC50 ± SEM, cAMP Accumulation (PC12 cells)). Moreover, in assay [9], the “t0.5, rate of decline of cAMP accumulated” value amounted to 3.9 ± 0.6 min. For the same compound, the “t0.5, time to 50% reversal of the increase in coronary conductance” value in assay [6] was 17.5 ± 1.2 min. The “t0.9, time to 90% reversal of the increase in coronary conductance” value in assay [6] came to 23.2 ± 2.1 min.
